Assay: recombinant barcode read abundance after kanamycin selection (control-corrected) (log10(CPM+1)); higher = more efficient recombination; sequences stand for … in AGTGCAGAGAAAATCGGCCAGTTTTCTCTGCCTGCAGTCCGCATGCCGT…AGATTTATGCAGCGGACTGCCTTTCTCCCAAAGTGATAAACCGGACAGTATCATGGACCGGTTTTCCCGGTAATCCGTATTTGCAAGGTTGGTTTCACT; site = the 11-nt target
Summary of the method: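 Targets and IS621 bridge RNA target-binding loops were paired in oligos, each with a promoter, a barcode and the J23119-driven first 104 bridge RNA bases. A vector carrying the remaining 73 bp and a T7-inducible recombinase received these by Gibson cloning, and the pool was co-electroporated into E. coli with a donor plasmid. Duplicate plates contained chloramphenicol/ampicillin LB agar (control) or chloramphenicol/ampicillin/kanamycin with 0.1 mM IPTG. Recombination efficiency comes from averaged, control-corrected counts per million of recombinant-junction barcodes, reported as log10(CPM+1).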
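Note: IS621 recombinase and bridge RNA in Escherichia coli cells.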

Sequence: GCACCACCTTGGGTTCTAACCTGTTGCCT (site GCACTACCTAG)
- recombinant barcode read abundance (log10): 0.127

Sequence: GCACCGCCTTGGGTTCTAACCTGTTGCCT (site ACACCGCCTAG)
- recombinant barcode read abundance (log10): 0.667

Sequence: GCACCGCCTTGGGTTCTAACCTGTTGCCT (site CCACCGCCTAG)
- recombinant barcode read abundance (log10): 0.0991

Sequence: GCACCGCCTTGGGTTCTAACCTGTTGCCT (site GCACCGCCTAG)
- recombinant barcode read abundance (log10): 1.09

Sequence: GCACCGCCTTGGGTTCTAACCTGTTGCCT (site TCACCGCCTAG)
- recombinant barcode read abundance (log10): 0.0378

Sequence: GCACGCCCTTGGGTTCTAACCTGTTGCCT (site GCACGCCCTAG)
- recombinant barcode read abundance (log10): 0.711

Sequence: GCACGCCCTTGGGTTCTAACCTGTTGCCT (site TCCCGCCCTAG)
- recombinant barcode read abundance (log10): 0.0743

Sequence: GCACGCCCTTGGGTTCTAACCTGTTGCTT (site GCACGCCCTAA)
- recombinant barcode read abundance (log10): 0.737

Sequence: GCACGCCCTTGGGTTCTAACCTGTTGCTT (site GCGCGGCCTAA)
- recombinant barcode read abundance (log10): 0.181

Sequence: GCACTCCCTTGGGTTCTAACCTGTTGCCT (site GCACTCCCTAG)
- recombinant barcode read abundance (log10): 0.0516

Sequence: GCACTCCCTTGGGTTCTAACCTGTTGCCT (site GCCCTCCCTAG)
- recombinant barcode read abundance (log10): 0.0585

Sequence: GCACTCCCTTGGGTTCTAACCTGTTGCCT (site GCGCTCCCTAG)
- recombinant barcode read abundance (log10): 0.199

Sequence: GCACTCCCTTGGGTTCTAACCTGTTGCCT (site GCTCTCCCTAG)
- recombinant barcode read abundance (log10): 0.831

Sequence: GCAGAGTCTTGGGTTCTAACCTGTTGCCT (site GAAGAGTCTAG)
- recombinant barcode read abundance (log10): 0.201

Sequence: GCAGAGTCTTGGGTTCTAACCTGTTGCCT (site GCAGAGTCTAG)
- recombinant barcode read abundance (log10): 2.1

Sequence: GCAGAGTCTTGGGTTCTAACCTGTTGCCT (site GGAGAGTCTAG)
- recombinant barcode read abundance (log10): 0.0924

Sequence: GCAGAGTCTTGGGTTCTAACCTGTTGCCT (site GTAGAGTCTAG)
- recombinant barcode read abundance (log10): 1.06

Sequence: GCAGGGACTTGGGTTCTAACCTGTTGCCT (site GAAGGGACTAG)
- recombinant barcode read abundance (log10): 0.56

Sequence: GCAGGGACTTGGGTTCTAACCTGTTGCCT (site GCAGGGACTAG)
- recombinant barcode read abundance (log10): 1.9

Sequence: GCAGGGACTTGGGTTCTAACCTGTTGCCT (site GGAGGGACTAG)
- recombinant barcode read abundance (log10): 0.313

Sequence: GCAGGGACTTGGGTTCTAACCTGTTGCCT (site GTAGGGACTAG)
- recombinant barcode read abundance (log10): 1.02

Sequence: GCAGGTACTTGGGTTCTAACCTGTTGCCT (site ACAGGTACTAG)
- recombinant barcode read abundance (log10): 0.508

Sequence: GCAGGTACTTGGGTTCTAACCTGTTGCCT (site CCAGGTACTAG)
- recombinant barcode read abundance (log10): 0.401

Sequence: GCAGGTACTTGGGTTCTAACCTGTTGCCT (site GCAGGTACTAG)
- recombinant barcode read abundance (log10): 1.17

Sequence: GCAGGTACTTGGGTTCTAACCTGTTGCCT (site TCAGGTACTAG)
- recombinant barcode read abundance (log10): 0.466

Sequence: GCAGGTGCTTGGGTTCTAACCTGTTGCTT (site ATTTCGACTCC)
- recombinant barcode read abundance (log10): 0.0721

Sequence: GCAGGTGCTTGGGTTCTAACCTGTTGCTT (site GCAGGTGCTAA)
- recombinant barcode read abundance (log10): 1.75

Sequence: GCATACACTTGGGTTCTAACCTGTTGCCA (site GCATACACTTG)
- recombinant barcode read abundance (log10): 1.48

Sequence: GCATACACTTGGGTTCTAACCTGTTGCCA (site TGCAGGGCTCC)
- recombinant barcode read abundance (log10): 0.0903

Sequence: GCATCTACTTGGGTTCTAACCTGTTGCTA (site CATAACGCTAG)
- recombinant barcode read abundance (log10): 0.185

Sequence: GCATCTACTTGGGTTCTAACCTGTTGCTA (site GCATCTACTTA)
- recombinant barcode read abundance (log10): 0.0861

Sequence: GCCAAACCTTGGGTTCTAACCTGTTGCTA (site GCCAAACCTTA)
- recombinant barcode read abundance (log10): 0.0929

Sequence: GCCAAACCTTGGGTTCTAACCTGTTGCTA (site GTCAAGCCTTA)
- recombinant barcode read abundance (log10): 0.176

Sequence: GCCAGACCTTGGGTTCTAACCTGTTGCCT (site GCCAAACCTAG)
- recombinant barcode read abundance (log10): 0.0596

Sequence: GCCAGACCTTGGGTTCTAACCTGTTGCCT (site GCCACACCTAG)
- recombinant barcode read abundance (log10): 0.0708

Sequence: GCCAGACCTTGGGTTCTAACCTGTTGCCT (site GCCAGACCTAG)
- recombinant barcode read abundance (log10): 0.373

Sequence: GCCAGACCTTGGGTTCTAACCTGTTGCCT (site GCCATACCTAG)
- recombinant barcode read abundance (log10): 0.112

Sequence: GCCAGCTCTTGGGTTCTAACCTGTTGCTG (site CAATTTCCTAT)
- recombinant barcode read abundance (log10): 0.169

Sequence: GCCAGCTCTTGGGTTCTAACCTGTTGCTG (site GCCAGCTCTCA)
- recombinant barcode read abundance (log10): 0.581

Sequence: GCCATAACTTGGGTTCTAACCTGTTGCCT (site GCCATAACTAG)
- recombinant barcode read abundance (log10): 0.0347

Sequence: GCCATAACTTGGGTTCTAACCTGTTGCCT (site GCCATCACTAG)
- recombinant barcode read abundance (log10): 0.0218

Sequence: GCCATAACTTGGGTTCTAACCTGTTGCCT (site GCCATGACTAG)
- recombinant barcode read abundance (log10): 0.256

Sequence: GCCATAACTTGGGTTCTAACCTGTTGCCT (site GCCATTACTAG)
- recombinant barcode read abundance (log10): 0.191

Sequence: GCCCGAACTTGGGTTCTAACCTGTTGCCT (site GCACGAACTAG)
- recombinant barcode read abundance (log10): 0.141

Sequence: GCCCGAACTTGGGTTCTAACCTGTTGCCT (site GCCCGAACTAG)
- recombinant barcode read abundance (log10): 0.998

Sequence: GCCCGAACTTGGGTTCTAACCTGTTGCCT (site GCGCGAACTAG)
- recombinant barcode read abundance (log10): 0.0267

Sequence: GCCCGAACTTGGGTTCTAACCTGTTGCCT (site GCTCGAACTAG)
- recombinant barcode read abundance (log10): 0.101

Sequence: GCCCGATCTTGGGTTCTAACCTGTTGCCT (site GCCCAATCTAG)
- recombinant barcode read abundance (log10): 0.743

Sequence: GCCCGATCTTGGGTTCTAACCTGTTGCCT (site GCCCCATCTAG)
- recombinant barcode read abundance (log10): 0.179

Sequence: GCCCGATCTTGGGTTCTAACCTGTTGCCT (site GCCCGATCTAG)
- recombinant barcode read abundance (log10): 1.42

Sequence: GCCCGATCTTGGGTTCTAACCTGTTGCCT (site GCCCTATCTAG)
- recombinant barcode read abundance (log10): 0.0709

Sequence: GCCCGGGCTTGGGTTCTAACCTGTTGCGG (site GCCCGGGCTCC)
- recombinant barcode read abundance (log10): 2.39

Sequence: GCCCGGGCTTGGGTTCTAACCTGTTGCGG (site GGCCGGGCTCC)
- recombinant barcode read abundance (log10): 0.022

Sequence: GCCCTATCTTGGGTTCTAACCTGTTGCCT (site GCCCAATCTAG)
- recombinant barcode read abundance (log10): 0.0981

Sequence: GCCCTATCTTGGGTTCTAACCTGTTGCCT (site GCCCCATCTAG)
- recombinant barcode read abundance (log10): 0.107

Sequence: GCCCTATCTTGGGTTCTAACCTGTTGCCT (site GCCCGATCTAG)
- recombinant barcode read abundance (log10): 0.0182

Sequence: GCCCTATCTTGGGTTCTAACCTGTTGCCT (site GCCCTATCTAG)
- recombinant barcode read abundance (log10): 1.35

Sequence: GCCCTGCCTTGGGTTCTAACCTGTTGCGT (site GCCCTGCCTAC)
- recombinant barcode read abundance (log10): 2.62

Sequence: GCCCTGCCTTGGGTTCTAACCTGTTGCGT (site TACCTGCCTAC)
- recombinant barcode read abundance (log10): 0.133

Sequence: GCCGAAACTTGGGTTCTAACCTGTTGCCT (site GCCGAAACTAG)
- recombinant barcode read abundance (log10): 0.0181

Sequence: GCCGAAACTTGGGTTCTAACCTGTTGCCT (site GCCGACACTAG)
- recombinant barcode read abundance (log10): 0.0951

Sequence: GCCGAAACTTGGGTTCTAACCTGTTGCCT (site GCCGAGACTAG)
- recombinant barcode read abundance (log10): 0.052

Sequence: GCCGAAACTTGGGTTCTAACCTGTTGCCT (site GCCGATACTAG)
- recombinant barcode read abundance (log10): 0.311

Sequence: GCCGAGCCTTGGGTTCTAACCTGTTGCCA (site GCCGAGCCTTG)
- recombinant barcode read abundance (log10): 0.21

Sequence: GCCGAGCCTTGGGTTCTAACCTGTTGCCA (site TAGTGAACTGT)
- recombinant barcode read abundance (log10): 0.432

Sequence: GCCGAGGCTTGGGTTCTAACCTGTTGCTG (site GCCGAGGCTCA)
- recombinant barcode read abundance (log10): 0.439

Sequence: GCCGAGGCTTGGGTTCTAACCTGTTGCTG (site GTCTAGGCTCA)
- recombinant barcode read abundance (log10): 0.326

Sequence: GCCGAGTCTTGGGTTCTAACCTGTTGCAC (site GCCGAGTCTAG)
- recombinant barcode read abundance (log10): 0.288

Sequence: GCCGAGTCTTGGGTTCTAACCTGTTGCAC (site GCCGAGTCTGT)
- recombinant barcode read abundance (log10): 1.25

Sequence: GCCGAGTCTTGGGTTCTAACCTGTTGCTA (site GCCGAGTCTAA)
- recombinant barcode read abundance (log10): 0.0891

Sequence: GCCGAGTCTTGGGTTCTAACCTGTTGCTA (site GCCGAGTCTCA)
- recombinant barcode read abundance (log10): 0.357

Sequence: GCCGAGTCTTGGGTTCTAACCTGTTGCTA (site GCCGAGTCTGA)
- recombinant barcode read abundance (log10): 0.0866

Sequence: GCCGAGTCTTGGGTTCTAACCTGTTGCTA (site GCCGAGTCTTA)
- recombinant barcode read abundance (log10): 0.411

Sequence: GCCGATACTTGGGTTCTAACCTGTTGCCT (site GCCGAAACTAG)
- recombinant barcode read abundance (log10): 0

Sequence: GCCGATACTTGGGTTCTAACCTGTTGCCT (site GCCGACACTAG)
- recombinant barcode read abundance (log10): 0.171

Sequence: GCCGATACTTGGGTTCTAACCTGTTGCCT (site GCCGAGACTAG)
- recombinant barcode read abundance (log10): 0.197

Sequence: GCCGATACTTGGGTTCTAACCTGTTGCCT (site GCCGATACTAG)
- recombinant barcode read abundance (log10): 0.113

From the supplement of paper PMC11208160
